Measurements reported in patent US20240409585A1, “MACROCYCLIC IMMUNOMODULATORS” (priority 2021, published 2024).
Read-outs that look alike come from different tables or passages of the source. Numbered stars: 1 amine (or outer) side, 2 acyl side, 3 side chain; on linkers, the order of the positions; unused ones are H or OH. Bridge positions count the residues as written; N and C are the ends. Square brackets hold non-standard residues; d marks the D form. Peptide text beside a SMILES is read from it. * marks the point of attachment. ξ: configuration not given here. Bip(4'-COOH) = N[C@@H](Cc1ccc(-c2ccc(C(=O)O)cc2)cc1)C(=O)O; Bip(4'-NHAc) = CC(=O)Nc1ccc(-c2ccc(C[C@H](N)C(=O)O)cc2)cc1; Phe(3-CF3) = N[C@@H](Cc1cccc(C(F)(F)F)c1)C(=O)O; Ala(morpholin-4-yl) = N[C@@H](CN1CCOCC1)C(=O)O; Phe(4-CONH2) = NC(=O)c1ccc(C[C@H](N)C(=O)O)cc1; Phe(4-COOH) = N[C@@H](Cc1ccc(C(=O)O)cc1)C(=O)O; Bip = N[C@@H](Cc1ccc(-c2ccccc2)cc1)C(=O)O; Phe(4-NH2) = Nc1ccc(C[C@H](N)C(=O)O)cc1; Phe(3-Me) = Cc1cccc(C[C@H](N)C(=O)O)c1; Phe(4-Me) = Cc1ccc(C[C@H](N)C(=O)O)cc1; Abu(3S-NH2) = C[C@H](N)[C@H](N)C(=O)O; Glutaryl = O=C(CCCC(=O)[*:2])[*:1]; Val(3-OH) = CC(C)(O)[C@H](N)C(=O)O; hArg = N=C(N)NCCCC[C@H](N)C(=O)O; hPhe = N[C@@H](CCc1ccccc1)C(=O)O; Cha = N[C@@H](CC1CCCCC1)C(=O)O; Thr(3ξ) = CC(O)[C@H](N)C(=O)O; Carboxymethyl = O=C(O)C*; NMeA = CN[C@@H](C)C(=O)O; Orn = NCCC[C@H](N)C(=O)O; Dab = NCC[C@H](N)C(=O)O; Dap = NC[C@H](N)C(=O)O

Molecular target: T1, Alexa fluor-647 labeled human PD-L1-Ig binding to Jurkat cell line over-expressing human PD-1 (Homo sapiens, UniProt Q15116)
T1 construct: expressed in transfected cells; host or cells: Jurkat
T1 sequence (Q15116 25-288): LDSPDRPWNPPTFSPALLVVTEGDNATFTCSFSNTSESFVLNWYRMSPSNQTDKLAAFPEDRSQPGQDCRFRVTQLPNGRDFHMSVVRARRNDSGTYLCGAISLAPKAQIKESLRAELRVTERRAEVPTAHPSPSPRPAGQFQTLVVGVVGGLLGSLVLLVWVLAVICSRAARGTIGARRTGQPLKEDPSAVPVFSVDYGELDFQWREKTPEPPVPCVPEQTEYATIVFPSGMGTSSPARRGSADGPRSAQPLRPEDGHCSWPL
Assay: Jurkat-PD-1 Cell Binding High-Content Screening Assay (CBA): Method 3 (Alexa fluor-647 labeled PD-L1-Ig)
Settings: Jurkat-PD-1 cells, Alexa fluor-647 labeled PD-L1-Ig 177 nM
Summary of the method: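 Jurkat cells over-expressing human PD-1 in RPMI/10% FCS were preincubated 2 h at 37 °C with compound, then exposed 1 h to Alexa fluor-647 labeled human PD-L1-Ig (177 nM final). Cells fixed in 4% paraformaldehyde with Hoechst 33342 and binding quantified by high-content imaging.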

[1] = head μM, read-out: CBA Method 3 μM

Row | Structure (SMILES) | IC50 (nM, read-out: CBA Method 3) | IC50 [1]
1 | CC(C)C[C@H]1NC(=O)[C@H](C)N(C)C(=O)[C@H](CCC(N)=O)NC(=O)[C@H](Cc2ccc(-c3ccccc3)cc2)NC(=O)[C@H](Cc2ccc(OCC(=O)O)cc2)NC(=O)[C@H](Cc2cccc(C(F)(F)F)c2)NC(=O)[C@H](CC(=O)O)NC(=O)[C@H](CCC(N)=O)NC(=O)[C@H](CC2CCCCC2)NC(=O)CSC[C@@H](C(=O)N[C@@H](CCN)C(N)=O)NC(=O)[C@H](CCCN)NC(=O)[C@H](C(C)C)NC(=O)[C@H](CC2CCCCC2)NC(=O)[C@H](CCN)NC1=O [Example 5248] ({CH2CO}-[Cha]QD[Phe(3-CF3)]Y(Carboxymethyl)[Bip]Q[NMeA][dL][Dab][Cha]V[Orn]C[Dab]-NH2; thioether N-14) | 0.6 nM | 
2 | CC(=O)Nc1ccc(-c2ccc(C[C@@H]3NC(=O)[C@H](Cc4cccc(C)c4)NC(=O)[C@H](CC(=O)O)NC(=O)[C@H](Cc4ccc(C(=O)O)cc4)NC(=O)[C@H](CC4CCCCC4)NC(=O)CSC[C@@H](C(=O)N[C@@H](CCN)C(N)=O)NC(=O)[C@H](CCC(=O)O)NC(=O)[C@H](C(C)C)NC(=O)[C@H](CC4CCCCC4)NC(=O)[C@H](CCN)NC(=O)[C@@H](CC(C)C)NC(=O)[C@H](C)N(C)C(=O)[C@H](Cc4ccc(C(=O)O)cc4)NC(=O)[C@H](Cc4ccc(-c5ccccc5)cc4)NC3=O)cc2)cc1 [Example 5199] ({CH2CO}-[Cha][Phe(4-COOH)]D[Phe(3-Me)][Bip(4'-NHAc)][Bip][Phe(4-COOH)][NMeA][dL][Dab][Cha]VEC[Dab]-NH2; thioether N-14) |  | 10 nM
3 | Cc1cccc(C[C@@H]2NC(=O)[C@H](CC(=O)O)NC(=O)[C@H](Cc3ccc(OCC(=O)O)cc3)NC(=O)[C@H](CC3CCCCC3)NC(=O)CSC[C@@H](C(=O)N[C@@H](CCN)C(N)=O)NC(=O)[C@H](CCCN)NC(=O)[C@H](C(C)C)NC(=O)[C@H](Cc3ccc(N)cc3)NC(=O)[C@H](CCN)NC(=O)[C@@H](CC(C)C)NC(=O)[C@H](C)N(C)C(=O)[C@H](CCC(N)=O)NC(=O)[C@H](Cc3ccc(-c4ccccc4)cc3)NC(=O)[C@H](Cc3ccc(C(=O)O)cc3)NC2=O)c1 [Example 5189] ({CH2CO}-[Cha]Y(Carboxymethyl)D[Phe(3-Me)][Phe(4-COOH)][Bip]Q[NMeA][dL][Dab][Phe(4-NH2)]V[Orn]C[Dab]-NH2; thioether N-14) |  | 330 nM
4 | Cc1cccc(C[C@@H]2NC(=O)[C@H](CC(=O)O)NC(=O)[C@H](Cc3ccc(C(=O)O)cc3)NC(=O)[C@H](C)NC(=O)CSC[C@@H](C(=O)N[C@@H](CCN)C(N)=O)NC(=O)[C@H](CCC(=O)O)NC(=O)[C@H](C(C)C)NC(=O)[C@H](CC3CCCCC3)NC(=O)[C@H](CCN)NC(=O)[C@@H](CC(C)C)NC(=O)[C@H](C)N(C)C(=O)[C@H](Cc3ccc(C(=O)O)cc3)NC(=O)[C@H](Cc3ccc(-c4ccccc4)cc3)NC(=O)[C@H](Cc3ccc(C(=O)O)cc3)NC2=O)c1 [Example 5136] ({CH2CO}-A[Phe(4-COOH)]D[Phe(3-Me)][Phe(4-COOH)][Bip][Phe(4-COOH)][NMeA][dL][Dab][Cha]VEC[Dab]-NH2; thioether N-14) |  | 20 nM
5 | CC(C)C[C@H]1NC(=O)[C@H](C)N(C)C(=O)[C@H](Cc2ccc(C(=O)O)cc2)NC(=O)[C@H](Cc2ccc(-c3ccccc3)cc2)NC(=O)[C@H](CCc2ccccc2)NC(=O)[C@H](Cc2cccc(C(F)(F)F)c2)NC(=O)[C@H](CC(=O)O)NC(=O)[C@H](Cc2ccc(C(=O)O)cc2)NC(=O)[C@H](CN2CCOCC2)NC(=O)CSC[C@@H](C(=O)N[C@@H](CCN)C(N)=O)NC(=O)[C@H](CNC(=O)CCCC(=O)O)NC(=O)[C@H](C(C)C)NC(=O)[C@H](CC2CCCCC2)NC(=O)[C@H](CCN)NC1=O [Example 5209] ({CH2CO}-[Ala(morpholin-4-yl)][Phe(4-COOH)]D[Phe(3-CF3)][hPhe][Bip][Phe(4-COOH)][NMeA][dL][Dab][Cha]V[Dap](Glutaryl)C[Dab]-NH2; thioether N-14) |  | 20 nM
6 | Cc1ccc(C[C@@H]2NC(=O)CSC[C@@H](C(=O)N[C@@H](CCN)C(N)=O)NC(=O)[C@H](CCCN)NC(=O)[C@H](C(C)C)NC(=O)[C@H](CC3CCCCC3)NC(=O)[C@H](CCN)NC(=O)[C@@H](CC(C)C)NC(=O)[C@H](C)N(C)C(=O)[C@H](CCC(N)=O)NC(=O)[C@H](Cc3ccc(-c4ccccc4)cc3)NC(=O)[C@H](Cc3ccc(C(=O)O)cc3)NC(=O)[C@H](Cc3cccc(C)c3)NC(=O)[C@H](CC(=O)O)NC(=O)[C@H](Cc3ccc(OCC(=O)O)cc3)NC2=O)cc1 [Example 5289] ({CH2CO}-[Phe(4-Me)]Y(Carboxymethyl)D[Phe(3-Me)][Phe(4-COOH)][Bip]Q[NMeA][dL][Dab][Cha]V[Orn]C[Dab]-NH2; thioether N-14) | 0.8 nM | 
7 | Cc1cccc(C[C@@H]2NC(=O)[C@H](CC(=O)O)NC(=O)[C@H](Cc3ccc(OCC(=O)O)cc3)NC(=O)[C@H](CC3CCCCC3)NC(=O)CSC[C@@H](C(=O)N[C@@H](CCN)C(N)=O)NC(=O)[C@H](CCC(N)=O)NC(=O)[C@H](C(C)C)NC(=O)[C@H](CC3CCCCC3)NC(=O)[C@H](CCN)NC(=O)[C@@H](CC(C)C)NC(=O)[C@H](C)N(C)C(=O)[C@H](CCC(N)=O)NC(=O)[C@H](Cc3ccc(-c4ccccc4)cc3)NC(=O)[C@H](CCc3ccccc3)NC2=O)c1 [Example 5222] ({CH2CO}-[Cha]Y(Carboxymethyl)D[Phe(3-Me)][hPhe][Bip]Q[NMeA][dL][Dab][Cha]VQC[Dab]-NH2; thioether N-14) |  | 20 nM
8 | Cc1cccc(C[C@@H]2NC(=O)[C@H](CC(=O)O)NC(=O)[C@H](Cc3ccc(OCC(=O)O)cc3)NC(=O)[C@H](C)NC(=O)CSC[C@@H](C(=O)N[C@@H](CCN)C(N)=O)NC(=O)[C@H](CCC(=O)O)NC(=O)[C@H](C(C)C)NC(=O)[C@H](CC3CCCCC3)NC(=O)[C@H](CCN)NC(=O)[C@@H](CC(C)C)NC(=O)[C@H](C)N(C)C(=O)[C@H](Cc3ccc(C(=O)O)cc3)NC(=O)[C@H](Cc3ccc(-c4ccccc4)cc3)NC(=O)[C@H](Cc3ccc(C(=O)O)cc3)NC2=O)c1 [Example 5137] ({CH2CO}-AY(Carboxymethyl)D[Phe(3-Me)][Phe(4-COOH)][Bip][Phe(4-COOH)][NMeA][dL][Dab][Cha]VEC[Dab]-NH2; thioether N-14) | 4.4 nM | 
9 | CC(=O)Nc1ccc(-c2ccc(C[C@@H]3NC(=O)[C@H](Cc4cccc(C)c4)NC(=O)[C@H](CC(=O)O)NC(=O)[C@H](Cc4ccc(-c5ccc(C(=O)O)cc5)cc4)NC(=O)[C@H]([C@@H](C)O)NC(=O)CSC[C@@H](C(=O)N[C@@H](CCN)C(N)=O)NC(=O)[C@H](Cc4cnc[nH]4)NC(=O)[C@H](C(C)(C)O)NC(=O)[C@H](CC4CCCCC4)NC(=O)[C@H](CCN)NC(=O)[C@@H](CC(C)C)NC(=O)[C@H](C)N(C)C(=O)[C@H](Cc4ccc(OCC(=O)O)cc4)NC(=O)[C@H](Cc4ccc(-c5ccccc5)cc4)NC3=O)cc2)cc1 [Example 5132] ({CH2CO}-T[Bip(4'-COOH)]D[Phe(3-Me)][Bip(4'-NHAc)][Bip]Y(Carboxymethyl)[NMeA][dL][Dab][Cha][Val(3-OH)]HC[Dab]-NH2; thioether N-14) |  | 20 nM
10 | Cc1cccc(C[C@@H]2NC(=O)[C@H](CC(=O)O)NC(=O)[C@H](Cc3ccc(OCC(=O)O)cc3)NC(=O)[C@H](Cc3cccc(C(F)(F)F)c3)NC(=O)CSC[C@@H](C(=O)N[C@@H](CCN)C(N)=O)NC(=O)[C@H](CCCN)NC(=O)[C@H](C(C)C)NC(=O)[C@H](CC3CCCCC3)NC(=O)[C@H](CCN)NC(=O)[C@@H](CC(C)C)NC(=O)[C@H](C)N(C)C(=O)[C@H](CCC(N)=O)NC(=O)[C@H](Cc3ccc(-c4ccccc4)cc3)NC(=O)[C@H](Cc3ccc(C(=O)O)cc3)NC2=O)c1 [Example 5276] ({CH2CO}-[Phe(3-CF3)]Y(Carboxymethyl)D[Phe(3-Me)][Phe(4-COOH)][Bip]Q[NMeA][dL][Dab][Cha]V[Orn]C[Dab]-NH2; thioether N-14) | 1.1 nM | 
11 | CC(=O)Nc1ccc(-c2ccc(C[C@@H]3NC(=O)[C@H](Cc4cccc(C(F)(F)F)c4)NC(=O)[C@H](CC(=O)O)NC(=O)[C@H](Cc4ccc(C(N)=O)cc4)NC(=O)[C@H]([C@H](C)N)NC(=O)CSC[C@@H](C(=O)N[C@@H](CCN)C(N)=O)NC(=O)[C@H](CC(N)=O)NC(=O)[C@H](C(C)C)NC(=O)[C@H](CC4CCCCC4)NC(=O)[C@H](CCN)NC(=O)[C@@H](CC(C)C)NC(=O)[C@H](C)N(C)C(=O)[C@H](Cc4ccc(C(N)=O)cc4)NC(=O)[C@H](Cc4ccc(-c5ccccc5)cc4)NC3=O)cc2)cc1 [Example 5110] ({CH2CO}-[Abu(3S-NH2)][Phe(4-CONH2)]D[Phe(3-CF3)][Bip(4'-NHAc)][Bip][Phe(4-CONH2)][NMeA][dL][Dab][Cha]VNC[Dab]-NH2; thioether N-14) | 8.8 nM | 
12 | Cc1cccc(C[C@@H]2NC(=O)[C@H](CC(=O)O)NC(=O)[C@H](Cc3ccc(OCC(=O)O)cc3)NC(=O)[C@H](CCCCNC(=N)N)NC(=O)CSC[C@@H](C(=O)N[C@@H](CCN)C(N)=O)NC(=O)[C@H](CO)NC(=O)[C@H](C(C)(C)O)NC(=O)[C@H](CC3CCCCC3)NC(=O)[C@H](CCN)NC(=O)[C@@H](CC(C)C)NC(=O)[C@H](C)N(C)C(=O)[C@H](CCC(N)=O)NC(=O)[C@H](Cc3ccc(-c4ccccc4)cc3)NC(=O)[C@H](CCc3ccccc3)NC2=O)c1 [Example 5282] ({CH2CO}-[hArg]Y(Carboxymethyl)D[Phe(3-Me)][hPhe][Bip]Q[NMeA][dL][Dab][Cha][Val(3-OH)]SC[Dab]-NH2; thioether N-14) |  | 170 nM
13 | CC(C)C[C@H]1NC(=O)[C@H](C)N(C)C(=O)[C@H](Cc2ccc(OCC(=O)O)cc2)NC(=O)[C@H](Cc2ccc(-c3ccccc3)cc2)NC(=O)[C@H](Cc2ccc(C(=O)O)cc2)NC(=O)[C@H](Cc2cccc(C(F)(F)F)c2)NC(=O)[C@H](CC(=O)O)NC(=O)[C@H](Cc2ccc(OCC(=O)O)cc2)NC(=O)[C@H](C(C)O)NC(=O)CSC[C@@H](C(=O)N[C@@H](CCN)C(N)=O)NC(=O)[C@H]([C@@H](C)O)NC(=O)[C@H](C(C)C)NC(=O)[C@H](CC2CCCCC2)NC(=O)[C@H](CCN)NC1=O (stereo partly drawn) [Example 5143] ({CH2CO}-[Thr(3ξ)]Y(Carboxymethyl)D[Phe(3-CF3)][Phe(4-COOH)][Bip]Y(Carboxymethyl)[NMeA][dL][Dab][Cha]VTC[Dab]-NH2; thioether N-14) | 7 nM | 
